The results in this text go back to publication PMC10819746, “Investigating Novel IspE Inhibitors of the MEP Pathway in Mycobacterium” (Microorganisms, 2023).

pIC50: −log10 of the molar value.

For this experiment, the target named is T1, IspE (4-diphosphocytidyl-2-c-methyl-d-erythritol kinase; Rv1011) (Mycobacterium tuberculosis, UniProt P9WKG7).
T1 sequence (P9WKG7 2-318): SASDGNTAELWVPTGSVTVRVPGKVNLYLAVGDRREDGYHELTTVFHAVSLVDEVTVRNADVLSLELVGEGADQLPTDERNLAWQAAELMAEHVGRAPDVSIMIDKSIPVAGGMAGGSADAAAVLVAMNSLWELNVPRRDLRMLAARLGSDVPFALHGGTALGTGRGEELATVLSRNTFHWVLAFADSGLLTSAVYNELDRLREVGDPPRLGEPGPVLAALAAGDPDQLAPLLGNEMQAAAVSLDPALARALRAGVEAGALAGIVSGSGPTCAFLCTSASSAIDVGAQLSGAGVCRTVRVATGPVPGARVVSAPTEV
Nature of the experiment: ADP Quest HS coupled fluorescent kinase assay (resorufin) with Rv1011, ATP and CDP-ME. In kind it is biochemical.

In the case of `Cc1ccc([C@H]2c3c([nH]n(-c4ccccc4)c3=O)NC3=C[C@H](C)CC(=O)[C@H]32)cc1` [A1], the pIC50 (in general, the IC50 on a negative log10 scale, so that one unit is a factor of ten) is 4.81.
